Consider four compounds from patent US20220079944A1, “2H-INDAZOLE DERIVATIVES AS THERAPEUTIC AGENTS FOR BRAIN CANCERS AND BRAIN METASTASES” (BETA PHARMA, INC., priority 2019, published 2022).

Usually Papp A→B stands for the apparent permeability from the apical to the basolateral side of a cell layer. The low end stands for poor permeation, the high end for ready permeation. One may read the Papp B→A as how fast a substance crosses the layer from the basolateral side. One may read the efflux ratio as a quotient of directional permeabilities that is used to spot active efflux. By Papp is commonly meant a coefficient for how fast a substance crosses the barrier. A higher Papp goes with ready permeation.

Read-outs that look alike come from different tables or passages of the source.

The nature of series [1]: Brain concentration and brain/plasma ratio in mouse after 10 mg/kg p.o. It is filed as in vivo. The following applies: PO 10 mg/kg.
The next series addresses p-glycoprotein (P-gp) (Homo sapiens, UniProt P08183). Particulars: background statement; cited from earlier work.
The test system of another series is MDR1 (P-gp). Briefly: in vitro. Particulars: dog, MDCK-MDR1.
Setting [2] is: brain, po, 10 mg/kg, individual animal R1, read-out: Brain Concentration, R1 + 3n.
The mark [3] stands for this setting: brain, po, 10 mg/kg, individual animal R2, read-out: Brain Concentration, R2 + 3n.
Setting [4] is: brain, po, 10 mg/kg, individual animal R3, read-out: Brain Concentration, R3 + 3n.
The mark [5] stands for this setting: brain, po, 10 mg/kg, mean, read-out: Brain Concentration, Mean PO.
The mark [6] stands for this setting: plasma, po, 10 mg/kg, individual animal R1, read-out: Plasma Concentration, R1 + 3n.
[7] abbreviates: plasma, po, 10 mg/kg, individual animal R2, read-out: Plasma Concentration, R2 + 3n.
The mark [8] stands for this setting: plasma, po, 10 mg/kg, individual animal R3, read-out: Plasma Concentration, R3 + 3n.
[9] abbreviates: plasma, po, 10 mg/kg, mean, read-out: Plasma Concentration, Mean PO.

p-glycoprotein (P-gp), sequence (P08183 whole entry): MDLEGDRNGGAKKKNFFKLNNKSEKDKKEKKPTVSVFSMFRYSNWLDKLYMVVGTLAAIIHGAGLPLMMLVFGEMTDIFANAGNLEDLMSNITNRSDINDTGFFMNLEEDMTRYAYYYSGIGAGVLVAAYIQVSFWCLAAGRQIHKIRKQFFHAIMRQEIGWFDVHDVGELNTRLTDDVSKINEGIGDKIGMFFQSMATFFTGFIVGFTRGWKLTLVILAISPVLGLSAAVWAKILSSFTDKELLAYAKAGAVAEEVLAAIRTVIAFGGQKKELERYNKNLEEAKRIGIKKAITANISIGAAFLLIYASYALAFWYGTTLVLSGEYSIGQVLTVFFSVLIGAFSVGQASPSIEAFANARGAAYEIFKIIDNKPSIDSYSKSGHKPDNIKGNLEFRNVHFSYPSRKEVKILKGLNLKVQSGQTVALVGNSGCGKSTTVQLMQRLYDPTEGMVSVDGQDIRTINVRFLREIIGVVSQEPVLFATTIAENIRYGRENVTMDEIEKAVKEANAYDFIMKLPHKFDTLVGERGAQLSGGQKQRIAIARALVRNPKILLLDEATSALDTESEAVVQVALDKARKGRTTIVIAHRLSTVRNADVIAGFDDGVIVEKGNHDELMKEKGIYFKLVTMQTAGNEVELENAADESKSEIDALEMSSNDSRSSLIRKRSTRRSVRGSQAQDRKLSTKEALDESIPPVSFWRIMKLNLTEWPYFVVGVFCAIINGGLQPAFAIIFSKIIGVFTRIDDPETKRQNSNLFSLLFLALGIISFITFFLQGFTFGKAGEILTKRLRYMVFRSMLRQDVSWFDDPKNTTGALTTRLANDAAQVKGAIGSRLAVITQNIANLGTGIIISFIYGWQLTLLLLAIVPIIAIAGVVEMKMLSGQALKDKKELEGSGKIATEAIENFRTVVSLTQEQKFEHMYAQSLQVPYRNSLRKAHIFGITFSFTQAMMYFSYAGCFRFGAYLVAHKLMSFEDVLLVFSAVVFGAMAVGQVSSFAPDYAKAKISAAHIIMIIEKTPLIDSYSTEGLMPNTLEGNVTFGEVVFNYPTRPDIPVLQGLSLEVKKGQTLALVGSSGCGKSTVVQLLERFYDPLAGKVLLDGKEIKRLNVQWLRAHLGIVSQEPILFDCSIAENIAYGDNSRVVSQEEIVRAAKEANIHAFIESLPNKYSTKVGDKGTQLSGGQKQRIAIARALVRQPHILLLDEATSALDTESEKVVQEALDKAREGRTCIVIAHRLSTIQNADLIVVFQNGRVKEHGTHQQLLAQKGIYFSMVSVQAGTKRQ
Description for MDR1 (P-gp): MDR1-MDCK cell monolayers were grown to confluence on collagen-coated, microporous membranes in 12-well assay plates. […] The permeability assay buffer was Hanks' balanced salt solution (HBSS) containing 10 mM HEPES and 15 mM glucose at a pH of 7.4. The buffer in the receiver chamber also contained 1% bovine serum albumin. The dosing solution concentration was 5 μM of test article in the assay buffer+/−1 μM valspodar. Cells were first pre-incubated for 30 minutes with HBSS containing +/−1 μM valspodar. Cell monolayers were dosed on the apical side (A-to-B) or basolateral side (B-to-A) and incubated at 37° C. with 5% CO2 in a humidified incubator. Samples were taken from the donor and receiver chambers at 120 minutes. Each determination was performed in duplicate. The flux of lucifer yellow was also measured post-experimentally for each monolayer to ensure no damage was inflicted to the cell monolayers during the flux period. All samples were assayed by LC-MS/MS using electrospray ionization.

Consider `CCN1CCN(Cc2ccc(Nc3ncc(F)c(-c4cc(F)c5nc(C)n(C(C)C)c5c4)n3)nc2)CC1` [abemaciclib, reference compound], for which, in series [1] (brain AUC0-last / plasma AUC0-last, 10 mg/kg), the “AUC0-last Ratio, brain/plasma (B/P) ratio” value amounted to 0.432. Also, the “Brain AUC0-last” value in series [1] (brain, from mean concentrations) was found to be 4085 ng·h/g. In series [1] (plasma, from mean concentrations, read-out: Plasma AUC0-last), the AUC(0-t) stood at 9450 ng·h/mL. In addition, the concentration at 2 h in series [1] (setting [2]) came out at 216 ng/g; in series [1] (setting [3]), 326 ng/g; in series [1] (setting [4]), 302 ng/g; in series [1] (setting [5]), 282 ng/g; in series [1] (setting [6]) it was 633 ng/mL; in series [1] (setting [7]) it was 1060 ng/mL. In addition, the concentration at 2 h turned out to be 821 ng/mL in series [1] (setting [8]) and 836 ng/mL in series [1] (setting [9]). Also, the concentration at 4 h in series [1] (setting [2]) was 452 ng/g; in series [1] (setting [3]), 370 ng/g; in series [1] (setting [4]), 469 ng/g; in series [1] (setting [5]), 430 ng/g; in series [1] (setting [6]), 700 ng/mL; in series [1] (setting [7]), 744 ng/mL. Moreover, the values for the concentration at 4 h in series [1] (setting [8]) and in series [1] (setting [9]) were 963 ng/mL and 802 ng/mL, respectively. For the same compound, the concentration at 8 h is 421 ng/g in series [1] (setting [2]); 277 ng/g in series [1] (setting [3]); 341 ng/g in series [1] (setting [4]); 347 ng/g in series [1] (setting [5]); 1020 ng/mL in series [1] (setting [6]); 707 ng/mL in series [1] (setting [7]). Also, the concentration at 8 h in series [1] (setting [8]) was found to be 780 ng/mL; in series [1] (setting [9]), 837 ng/mL. Further, the concentration at 24 h in series [1] (setting [2]) amounted to 6.51 ng/g; in series [1] (setting [3]), 14.8 ng/g; in series [1] (setting [4]), 10.6 ng/g; in series [1] (setting [5]), 10.6 ng/g; in series [1] (setting [6]), 11.5 ng/mL; in series [1] (setting [7]), 46.7 ng/mL. In addition, the concentration at 24 h in series [1] (setting [8]) was 16.6 ng/mL; in series [1] (setting [9]), 24.9 ng/mL. Moreover, the Kp in series [1] (brain, po, 10 mg/kg, brain AUC0-last / plasma AUC0-last, read-out: AUC0-last Ratio, brain/plasma (B/P) ratio) was determined as 0.43. Moreover, the P-gp substrate result on p-glycoprotein (P-gp) was “p-glycoprotein (P-gp) substrates”.
In the case of `C[C@H]1O[C@@H](O[C@H]2[C@@H](O)C[C@H](O[C@H]3[C@@H](O)C[C@H](O[C@H]4CC[C@@]5(C)[C@H](CC[C@@H]6[C@@H]5C[C@@H](O)[C@]5(C)[C@@H](C7=CC(=O)OC7)CC[C@]65O)C4)O[C@@H]3C)O[C@@H]2C)C[C@H](O)[C@@H]1O` [Digoxin], in the series with MDR1 (P-gp), the Papp A→B was 0.05 ×10⁻⁶ cm/s, the Papp B→A was 13.9 ×10⁻⁶ cm/s and the efflux ratio turned out to be 254.
For the compound `CC(=O)c1c(C)c2cnc(Nc3ccc(N4CCNCC4)cn3)nc2n(C2CCCC2)c1=O` [palbociclib], the P-gp substrate result on p-glycoprotein (P-gp) was “p-glycoprotein (P-gp) substrates”.
In the series on MDR1 (P-gp), `CC(C)NCC(O)COc1cccc2ccccc12` (stereo not drawn) [Propranolol] displayed an apparent permeability coefficient (Papp) of 12.8 ×10⁻⁶ cm/s.
